Experiments:
Test in all cases: PRESTO-Tango GPCR screen
Assay type in all cases: cell-based
Settings in all cases: 100 µM
SSTR3 = target: T1, SSTR3 (Homo sapiens, UniProt P32745)
T1 construct: purchased PRESTO-Tango GPCR kit (Roth lab / Addgene)
Procedure, shortened: (§1)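 Cells were HTLA, a HEK293 line carrying β-arrestin-TEV and tTA-luciferase, transfected with each receptor-Tango plasmid, then exposed to compound at 100 μM final for 20 h.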

RXFP2 = target: T2, RXFP2 (Homo sapiens, UniProt Q8WXD0)
T2 construct: purchased PRESTO-Tango GPCR kit (Roth lab / Addgene)
Procedure, shortened: as §1

MRGPRG = target: T3, MRGPRG (Homo sapiens, UniProt Q86SM5)
T3 construct: purchased PRESTO-Tango GPCR kit (Roth lab / Addgene)
Procedure, shortened: as §1

TAAR5 = target: T4, TAAR5 (Homo sapiens, UniProt O14804)
T4 construct: purchased PRESTO-Tango GPCR kit (Roth lab / Addgene)
Procedure, shortened: as §1

GRM4 = target: T5, GRM4 (Homo sapiens, UniProt Q14833)
T5 construct: purchased PRESTO-Tango GPCR kit (Roth lab / Addgene)
Procedure, shortened: as §1

PTGDR = target: T6, PTGDR (Homo sapiens, UniProt Q13258)
T6 construct: purchased PRESTO-Tango GPCR kit (Roth lab / Addgene)
Procedure, shortened: as §1

GPRC6A = target: T7, GPRC6A (Homo sapiens, UniProt Q5T6X5)
T7 construct: purchased PRESTO-Tango GPCR kit (Roth lab / Addgene)
Procedure, shortened: as §1

GPR19 = target: T8, GPR19 (Homo sapiens, UniProt Q15760)
T8 construct: purchased PRESTO-Tango GPCR kit (Roth lab / Addgene)
Procedure, shortened: as §1

LHCGR = target: T9, LHCGR (Homo sapiens, UniProt P22888)
T9 construct: purchased PRESTO-Tango GPCR kit (Roth lab / Addgene)
Procedure, shortened: as §1

NPBW1 = target: T10, NPBW1 (Homo sapiens, UniProt P48145)
T10 construct: purchased PRESTO-Tango GPCR kit (Roth lab / Addgene)
Procedure, shortened: as §1

BDKBR2 = target: T11, BDKBR2 (Homo sapiens, UniProt P30411)
T11 construct: purchased PRESTO-Tango GPCR kit (Roth lab / Addgene)
Procedure, shortened: as §1

F2RL2 = target: T12, F2RL2 (Homo sapiens, UniProt O00254)
T12 construct: purchased PRESTO-Tango GPCR kit (Roth lab / Addgene)
Procedure, shortened: as §1

OPRL1 = target: T13, OPRL1 (Homo sapiens, UniProt P41146)
T13 construct: purchased PRESTO-Tango GPCR kit (Roth lab / Addgene)
Procedure, shortened: as §1

GPR12 = target: T14, GPR12 (Homo sapiens, UniProt P47775)
T14 construct: purchased PRESTO-Tango GPCR kit (Roth lab / Addgene)
Procedure, shortened: as §1

ADRB3 = target: T15, ADRB3 (Homo sapiens, UniProt P13945)
T15 construct: purchased PRESTO-Tango GPCR kit (Roth lab / Addgene)
Procedure, shortened: as §1

HTR1E = target: T16, HTR1E (Homo sapiens, UniProt P28566)
T16 construct: purchased PRESTO-Tango GPCR kit (Roth lab / Addgene)
Procedure, shortened: as §1

GPR55 = target: T17, GPR55 (Homo sapiens, UniProt Q9Y2T6)
T17 construct: purchased PRESTO-Tango GPCR kit (Roth lab / Addgene)
Procedure, shortened: as §1

NPFF1 = target: T18, NPFF1 (Homo sapiens, UniProt Q9GZQ6)
T18 construct: purchased PRESTO-Tango GPCR kit (Roth lab / Addgene)
Procedure, shortened: as §1

TSHR = target: T19, TSHR (Homo sapiens, UniProt P16473)
T19 construct: purchased PRESTO-Tango GPCR kit (Roth lab / Addgene)
Procedure, shortened: as §1

UTS2R = target: T20, UTS2R (Homo sapiens, UniProt Q9UKP6)
T20 construct: purchased PRESTO-Tango GPCR kit (Roth lab / Addgene)
Procedure, shortened: as §1

CCR3 = target: T21, CCR3 (Homo sapiens, UniProt P51677)
T21 construct: purchased PRESTO-Tango GPCR kit (Roth lab / Addgene)
Procedure, shortened: as §1

MRGPRX3 = target: T22, MRGPRX3 (Homo sapiens, UniProt Q96LB0)
T22 construct: purchased PRESTO-Tango GPCR kit (Roth lab / Addgene)
Procedure, shortened: as §1

DRD3 = target: T23, DRD3 (Homo sapiens, UniProt P35462)
T23 construct: purchased PRESTO-Tango GPCR kit (Roth lab / Addgene)
Procedure, shortened: as §1

GPR125 = target: T24, GPR125 (Homo sapiens, UniProt Q8IWK6)
T24 construct: purchased PRESTO-Tango GPCR kit (Roth lab / Addgene)
Procedure, shortened: as §1

SUCNR1 = target: T25, SUCNR1 (Homo sapiens, UniProt Q9BXA5)
T25 construct: purchased PRESTO-Tango GPCR kit (Roth lab / Addgene)
Procedure, shortened: as §1

P2RY11 = target: T26, P2RY11 (Homo sapiens, UniProt Q96G91)
T26 construct: purchased PRESTO-Tango GPCR kit (Roth lab / Addgene)
Procedure, shortened: as §1

HCA2 = target: T27, HCA2 (Homo sapiens, UniProt Q8TDS4)
T27 construct: purchased PRESTO-Tango GPCR kit (Roth lab / Addgene)
Procedure, shortened: as §1

GPR158 = target: T28, GPR158 (Homo sapiens, UniProt Q5T848)
T28 construct: purchased PRESTO-Tango GPCR kit (Roth lab / Addgene)
Procedure, shortened: as §1

NPFF2 = target: T29, NPFF2 (Homo sapiens, UniProt Q9Y5X5)
T29 construct: purchased PRESTO-Tango GPCR kit (Roth lab / Addgene)
Procedure, shortened: as §1

GPR119 = target: T30, GPR119 (Homo sapiens, UniProt Q8TDV5)
T30 construct: purchased PRESTO-Tango GPCR kit (Roth lab / Addgene)
Procedure, shortened: as §1

DRD4 = target: T31, DRD4 (Homo sapiens, UniProt P21917)
T31 construct: purchased PRESTO-Tango GPCR kit (Roth lab / Addgene)
Procedure, shortened: as §1

SSTR4 = target: T32, SSTR4 (Homo sapiens, UniProt P31391)
T32 construct: purchased PRESTO-Tango GPCR kit (Roth lab / Addgene)
Procedure, shortened: as §1

P2RY13 = target: T33, P2RY13 (Homo sapiens, UniProt Q9BPV8)
T33 construct: purchased PRESTO-Tango GPCR kit (Roth lab / Addgene)
Procedure, shortened: as §1

LPAR6 = target: T34, LPAR6 (Homo sapiens, UniProt P43657)
T34 construct: purchased PRESTO-Tango GPCR kit (Roth lab / Addgene)
Procedure, shortened: as §1

HCTR2 = target: T35, HCTR2 (Homo sapiens, UniProt O43614)
T35 construct: purchased PRESTO-Tango GPCR kit (Roth lab / Addgene)
Procedure, shortened: as §1

T5 sequence (Q14833 33-912): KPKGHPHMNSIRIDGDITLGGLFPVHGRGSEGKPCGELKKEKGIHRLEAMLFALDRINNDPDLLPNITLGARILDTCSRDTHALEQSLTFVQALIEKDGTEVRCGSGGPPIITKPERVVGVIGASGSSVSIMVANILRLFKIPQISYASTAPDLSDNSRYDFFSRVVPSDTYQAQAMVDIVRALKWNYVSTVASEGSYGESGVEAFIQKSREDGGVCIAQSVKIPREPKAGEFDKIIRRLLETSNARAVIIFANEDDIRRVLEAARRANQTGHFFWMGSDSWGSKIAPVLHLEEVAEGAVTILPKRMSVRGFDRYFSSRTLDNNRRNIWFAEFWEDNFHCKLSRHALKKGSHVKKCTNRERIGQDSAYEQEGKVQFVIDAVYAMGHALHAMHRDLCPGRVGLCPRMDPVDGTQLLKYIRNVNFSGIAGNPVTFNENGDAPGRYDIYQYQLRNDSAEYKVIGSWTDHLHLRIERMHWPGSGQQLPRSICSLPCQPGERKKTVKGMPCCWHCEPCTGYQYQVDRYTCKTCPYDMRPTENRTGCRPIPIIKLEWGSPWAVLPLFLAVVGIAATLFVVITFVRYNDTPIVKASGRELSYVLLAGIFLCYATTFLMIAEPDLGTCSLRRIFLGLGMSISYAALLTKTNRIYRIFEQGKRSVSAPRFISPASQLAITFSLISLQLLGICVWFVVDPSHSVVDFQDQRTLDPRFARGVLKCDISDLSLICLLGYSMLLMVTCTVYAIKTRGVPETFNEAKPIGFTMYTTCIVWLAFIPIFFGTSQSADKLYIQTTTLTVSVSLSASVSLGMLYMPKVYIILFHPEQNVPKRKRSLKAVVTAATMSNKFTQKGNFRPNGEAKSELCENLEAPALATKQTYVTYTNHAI
T25 sequence (Q9BXA5 whole entry): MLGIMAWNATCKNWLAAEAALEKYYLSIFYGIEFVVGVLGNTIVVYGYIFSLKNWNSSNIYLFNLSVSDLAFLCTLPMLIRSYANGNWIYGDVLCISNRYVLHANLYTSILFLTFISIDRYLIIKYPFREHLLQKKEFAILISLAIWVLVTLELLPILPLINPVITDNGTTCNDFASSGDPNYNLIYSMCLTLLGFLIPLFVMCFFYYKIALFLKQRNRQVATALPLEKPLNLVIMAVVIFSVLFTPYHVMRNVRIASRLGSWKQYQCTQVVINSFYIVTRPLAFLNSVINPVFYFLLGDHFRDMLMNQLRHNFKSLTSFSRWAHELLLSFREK
T30 sequence (Q8TDV5 whole entry): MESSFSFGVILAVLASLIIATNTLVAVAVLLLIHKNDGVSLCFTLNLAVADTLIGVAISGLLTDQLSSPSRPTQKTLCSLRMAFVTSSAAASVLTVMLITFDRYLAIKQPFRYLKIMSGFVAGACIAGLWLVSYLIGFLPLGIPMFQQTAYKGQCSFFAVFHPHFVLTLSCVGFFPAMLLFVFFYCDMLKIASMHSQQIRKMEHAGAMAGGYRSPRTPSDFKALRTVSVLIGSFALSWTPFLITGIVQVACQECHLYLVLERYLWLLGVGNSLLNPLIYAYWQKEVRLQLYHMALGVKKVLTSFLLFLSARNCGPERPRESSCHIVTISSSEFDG
T21 sequence (P51677 whole entry): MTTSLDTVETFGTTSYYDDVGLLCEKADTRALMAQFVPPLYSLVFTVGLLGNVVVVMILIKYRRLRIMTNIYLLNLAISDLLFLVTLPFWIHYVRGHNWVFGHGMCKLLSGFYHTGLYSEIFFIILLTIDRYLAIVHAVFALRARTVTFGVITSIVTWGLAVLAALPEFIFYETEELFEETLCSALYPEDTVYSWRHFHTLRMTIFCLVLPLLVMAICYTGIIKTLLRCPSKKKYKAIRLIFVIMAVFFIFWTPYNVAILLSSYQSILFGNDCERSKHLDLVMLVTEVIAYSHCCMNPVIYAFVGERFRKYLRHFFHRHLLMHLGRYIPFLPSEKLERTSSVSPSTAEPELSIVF
T11 sequence (P30411 whole entry): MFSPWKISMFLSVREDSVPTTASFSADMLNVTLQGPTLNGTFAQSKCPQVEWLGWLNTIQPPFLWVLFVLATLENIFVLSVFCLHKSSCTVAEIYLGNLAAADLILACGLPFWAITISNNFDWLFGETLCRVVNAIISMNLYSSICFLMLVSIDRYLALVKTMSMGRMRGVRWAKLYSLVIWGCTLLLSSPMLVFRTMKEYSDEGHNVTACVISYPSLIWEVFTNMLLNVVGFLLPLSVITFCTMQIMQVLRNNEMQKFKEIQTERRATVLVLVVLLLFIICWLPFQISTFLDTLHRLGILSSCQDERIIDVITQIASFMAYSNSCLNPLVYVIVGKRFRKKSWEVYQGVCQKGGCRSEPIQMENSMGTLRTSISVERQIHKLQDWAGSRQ
T14 sequence (P47775 whole entry): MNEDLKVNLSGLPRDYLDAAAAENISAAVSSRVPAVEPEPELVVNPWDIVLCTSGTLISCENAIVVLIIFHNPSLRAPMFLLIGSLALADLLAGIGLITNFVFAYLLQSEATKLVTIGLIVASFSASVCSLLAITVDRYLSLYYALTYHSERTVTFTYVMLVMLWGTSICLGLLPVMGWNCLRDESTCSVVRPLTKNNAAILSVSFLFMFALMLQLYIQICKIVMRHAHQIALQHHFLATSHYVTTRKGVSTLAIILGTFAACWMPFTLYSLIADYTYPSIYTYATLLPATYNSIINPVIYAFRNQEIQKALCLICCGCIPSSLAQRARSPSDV
T6 sequence (Q13258 whole entry): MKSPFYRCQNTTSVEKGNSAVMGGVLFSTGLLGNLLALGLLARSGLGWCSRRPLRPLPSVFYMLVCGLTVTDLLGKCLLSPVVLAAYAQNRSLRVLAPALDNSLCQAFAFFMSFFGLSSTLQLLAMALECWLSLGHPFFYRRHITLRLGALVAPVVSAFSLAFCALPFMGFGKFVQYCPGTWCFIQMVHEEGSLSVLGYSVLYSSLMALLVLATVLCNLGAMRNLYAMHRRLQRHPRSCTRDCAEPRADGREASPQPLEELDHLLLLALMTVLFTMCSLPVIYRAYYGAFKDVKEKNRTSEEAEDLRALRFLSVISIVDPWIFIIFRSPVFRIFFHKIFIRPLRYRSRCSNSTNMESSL
T22 sequence (Q96LB0 whole entry): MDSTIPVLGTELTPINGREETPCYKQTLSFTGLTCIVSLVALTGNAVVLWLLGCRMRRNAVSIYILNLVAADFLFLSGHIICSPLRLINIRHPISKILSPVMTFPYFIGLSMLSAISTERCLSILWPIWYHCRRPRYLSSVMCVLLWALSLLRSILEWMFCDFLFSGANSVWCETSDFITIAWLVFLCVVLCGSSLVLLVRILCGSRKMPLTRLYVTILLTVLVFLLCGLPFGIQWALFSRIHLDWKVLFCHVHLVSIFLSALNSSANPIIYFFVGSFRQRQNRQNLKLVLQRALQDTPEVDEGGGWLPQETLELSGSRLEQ
T2 sequence (Q8WXD0 whole entry): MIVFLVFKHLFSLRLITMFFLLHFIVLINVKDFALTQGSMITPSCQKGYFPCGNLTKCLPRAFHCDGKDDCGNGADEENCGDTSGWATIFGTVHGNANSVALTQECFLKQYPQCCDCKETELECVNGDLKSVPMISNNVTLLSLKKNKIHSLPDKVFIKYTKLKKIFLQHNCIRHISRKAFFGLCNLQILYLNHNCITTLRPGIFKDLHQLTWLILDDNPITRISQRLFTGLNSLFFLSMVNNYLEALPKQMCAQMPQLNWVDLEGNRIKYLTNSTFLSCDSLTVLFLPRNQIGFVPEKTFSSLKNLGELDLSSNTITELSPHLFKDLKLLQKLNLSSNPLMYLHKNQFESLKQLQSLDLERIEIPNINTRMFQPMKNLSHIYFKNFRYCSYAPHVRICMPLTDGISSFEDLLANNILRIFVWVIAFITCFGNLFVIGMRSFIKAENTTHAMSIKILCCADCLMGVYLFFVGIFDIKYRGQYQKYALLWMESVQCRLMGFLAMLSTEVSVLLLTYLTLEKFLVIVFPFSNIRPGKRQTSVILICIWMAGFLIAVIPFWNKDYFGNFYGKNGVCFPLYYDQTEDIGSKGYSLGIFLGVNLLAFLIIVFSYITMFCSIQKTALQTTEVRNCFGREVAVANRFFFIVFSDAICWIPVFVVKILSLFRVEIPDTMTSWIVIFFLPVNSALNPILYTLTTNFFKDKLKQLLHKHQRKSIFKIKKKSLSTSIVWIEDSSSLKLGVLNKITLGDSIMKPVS
T7 sequence (Q5T6X5 19-926): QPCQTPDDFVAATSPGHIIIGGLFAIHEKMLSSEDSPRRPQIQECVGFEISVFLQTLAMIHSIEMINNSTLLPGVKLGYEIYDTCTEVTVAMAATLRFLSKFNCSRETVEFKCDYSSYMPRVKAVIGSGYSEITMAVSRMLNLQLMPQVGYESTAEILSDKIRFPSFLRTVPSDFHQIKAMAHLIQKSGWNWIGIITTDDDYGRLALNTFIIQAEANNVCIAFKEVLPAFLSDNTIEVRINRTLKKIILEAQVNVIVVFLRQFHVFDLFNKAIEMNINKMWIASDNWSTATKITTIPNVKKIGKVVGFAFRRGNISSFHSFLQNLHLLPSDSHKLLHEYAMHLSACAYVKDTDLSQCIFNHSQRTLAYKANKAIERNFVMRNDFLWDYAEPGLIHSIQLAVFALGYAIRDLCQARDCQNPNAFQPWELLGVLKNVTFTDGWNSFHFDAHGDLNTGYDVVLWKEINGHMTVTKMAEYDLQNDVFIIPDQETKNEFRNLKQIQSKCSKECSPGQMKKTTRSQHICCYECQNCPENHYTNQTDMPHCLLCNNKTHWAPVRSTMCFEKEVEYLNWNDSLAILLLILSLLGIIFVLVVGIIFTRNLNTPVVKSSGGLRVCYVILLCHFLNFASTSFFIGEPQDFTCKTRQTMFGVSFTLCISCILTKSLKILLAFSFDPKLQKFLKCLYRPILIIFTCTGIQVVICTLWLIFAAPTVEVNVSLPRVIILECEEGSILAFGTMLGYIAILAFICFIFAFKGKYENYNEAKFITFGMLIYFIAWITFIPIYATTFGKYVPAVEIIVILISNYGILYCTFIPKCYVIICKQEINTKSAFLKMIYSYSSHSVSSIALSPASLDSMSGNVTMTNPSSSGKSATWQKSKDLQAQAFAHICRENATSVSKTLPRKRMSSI

Row | Structure (SMILES) | GPCR activation (heatmap value) (SSTR3) | GPCR activation (heatmap value) (RXFP2) | GPCR activation (heatmap value) (MRGPRG) | GPCR activation (heatmap value) (TAAR5) | GPCR activation (heatmap value) (GRM4) | GPCR activation (heatmap value) (PTGDR) | GPCR activation (heatmap value) (GPRC6A) | GPCR activation (heatmap value) (GPR19) | GPCR activation (heatmap value) (LHCGR) | GPCR activation (heatmap value) (NPBW1) | GPCR activation (heatmap value) (BDKBR2) | GPCR activation (heatmap value) (F2RL2) | GPCR activation (heatmap value) (OPRL1) | GPCR activation (heatmap value) (GPR12) | GPCR activation (heatmap value) (ADRB3) | GPCR activation (heatmap value) (HTR1E) | GPCR activation (heatmap value) (GPR55) | GPCR activation (heatmap value) (NPFF1) | GPCR activation (heatmap value) (TSHR) | GPCR activation (heatmap value) (UTS2R) | also measured
1 | CC(C)Cc1ncc(CCCNC(=N)N)[nH]c1=O [compound 3] | -0.3508 | -0.001018 | -0.5206 | -0.8641 | -0.2331 | 0.8064 | -0.9035 | -0.1336 | 0.1147 | -0.8992 | -0.1686 | 0.07678 | 0.326 | 0.5588 | 0.7966 | 0.5345 | 0.5927 | 0.7283 | 0.2016 | 0.9484 | GPCR activation (heatmap value) (CCR3): -0.6954; GPCR activation (heatmap value) (MRGPRX3): -1.319; GPCR activation (heatmap value) (DRD3): 0.613; GPCR activation (heatmap value) (GPR125): 0.4657; GPCR activation (heatmap value) (SUCNR1): 0.1336; GPCR activation (heatmap value) (P2RY11): -0.4085; GPCR activation (heatmap value) (HCA2): 0.2197; GPCR activation (heatmap value) (GPR158): -0.2474; GPCR activation (heatmap value) (NPFF2): -0.5121; GPCR activation (heatmap value) (GPR119): 0.03995; GPCR activation (heatmap value) (DRD4): 0.4609; GPCR activation (heatmap value) (SSTR4): -0.01818; GPCR activation (heatmap value) (P2RY13): -0.6143; GPCR activation (heatmap value) (LPAR6): 0.5638; GPCR activation (heatmap value) (HCTR2): -0.2618
2 | CC(C)Cc1ncc(CCCCNC(=N)N)[nH]c1=O [3-Homo] | 0.1422 | 0.2908 | -0.5195 | -0.4757 | -0.1574 | 0.1368 | -1.019 | -0.2115 | 0.1782 | -0.4089 | -0.09391 | -0.002642 | 0.777 | 0.07278 | -1.912 | 0.001914 | -0.519 | -0.4803 | -0.3975 | -1.423 | GPCR activation (heatmap value) (CCR3): -0.05608; GPCR activation (heatmap value) (MRGPRX3): -1.005; GPCR activation (heatmap value) (DRD3): 0.04182; GPCR activation (heatmap value) (GPR125): -0.2637; GPCR activation (heatmap value) (SUCNR1): -0.1091; GPCR activation (heatmap value) (P2RY11): 0.1373; GPCR activation (heatmap value) (HCA2): 0.4377; GPCR activation (heatmap value) (GPR158): -0.4311; GPCR activation (heatmap value) (NPFF2): -0.3895; GPCR activation (heatmap value) (GPR119): -1.3809; GPCR activation (heatmap value) (DRD4): -0.04181; GPCR activation (heatmap value) (SSTR4): 0.2411; GPCR activation (heatmap value) (P2RY13): 0.4611; GPCR activation (heatmap value) (LPAR6): 0.3664; GPCR activation (heatmap value) (HCTR2): -1.63

Reference: paper PMC11480411, “Mucosal sugars delineate pyrazine vs pyrazinone autoinducer signaling in Klebsiella oxytoca” (Nature Communications, 2024)
